Results as given in PubChem BioAssay AID248 (DTP/NCI, 2004).
Where “and” joins values, the source holds several entries; their conditions need not be identical. Identical values can stand only once. Inconclusive results and toxic doses are left out.

System: L1210 leukemia ip in BDF1 mice, survival T/C
Assay: NCI In Vivo Anticancer Drug Screen. Data for tumor model L1210 Leukemia (intraperitoneal) in B6D2F1 (BDF1) mice
Settings: endpoint: mean survival time, higher = longer survival
Summary of the method: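 In this screen, tumor-bearing mice given compound are compared to those given vehicle, and their survival values are reported as a treated-to-control quotient.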

[1] = dose: 100.0 mg/kg/injection, schedule: Q01DX001 (ip), vehicle: saline
[2] = dose: 200.0 mg/kg/injection, schedule: Q01DX001 (ip), vehicle: saline
[3] = dose: 400.0 mg/kg/injection, schedule: Q01DX001 (ip), vehicle: saline
[4] = dose: 100.0 mg/kg/injection, schedule: Q04DX003 (ip), vehicle: saline with Tween-80
[5] = dose: 200.0 mg/kg/injection, schedule: Q04DX003 (ip), vehicle: saline with Tween-80
[6] = dose: 100.0 mg/kg/injection, schedule: Q01DX001 (ip), vehicle: carboxymethylcellulose (CMC)
[7] = dose: 200.0 mg/kg/injection, schedule: Q01DX001 (ip), vehicle: carboxymethylcellulose (CMC)
[8] = dose: 400.0 mg/kg/injection, schedule: Q01DX001 (ip), vehicle: carboxymethylcellulose (CMC)
[9] = dose: 100.0 mg/kg/injection, schedule: Q01DX009 (ip), vehicle: saline
[10] = dose: 100.0 mg/kg/injection, schedule: Q04DX003 (ip), vehicle: saline
[11] = dose: 200.0 mg/kg/injection, schedule: Q01DX009 (ip), vehicle: saline
[12] = dose: 200.0 mg/kg/injection, schedule: Q04DX003 (ip), vehicle: saline
[13] = dose: 100.0 mg/kg/injection, schedule: Q04DX003 (ip), vehicle: Klucel (hydroxypropylcellulose) (HPC)
[14] = dose: 200.0 mg/kg/injection, schedule: Q04DX003 (ip), vehicle: Klucel (hydroxypropylcellulose) (HPC)
[15] = dose: 400.0 mg/kg/injection, schedule: Q04DX003 (ip), vehicle: Klucel (hydroxypropylcellulose) (HPC)
[16] = dose: 400.0 mg/kg/injection, schedule: Q01DX009 (ip), vehicle: saline

C/C(=N\NS(=O)(=O)c1ccccc1)C(C)C
T/C (dose: 75.0 mg/kg/injection, schedule: Q01DX001 (ip), vehicle: saline): 101 % of control | T/C (dose: 150.0 mg/kg/injection, schedule: Q01DX001 (ip), vehicle: saline): 98 % of control | T/C (dose: 300.0 mg/kg/injection, schedule: Q01DX001 (ip), vehicle: saline): 96 % of control

CC(C)Sc1ncnc2nc[nH]c12
T/C (dose: 2.5 mg/kg/injection, schedule: Q01DX009 (sc), vehicle: steriod suspending solution): 97 % of control | T/C (dose: 5.0 mg/kg/injection, schedule: Q01DX009 (sc), vehicle: steriod suspending solution): 100 % of control | T/C (dose: 10.0 mg/kg/injection, schedule: Q01DX009 (sc), vehicle: steriod suspending solution): 96 % of control | T/C (dose: 18.0 mg/kg/injection, schedule: Q01DX009 (ip), vehicle: saline with Tween-80): 102 % of control | T/C (dose: 27.0 mg/kg/injection, schedule: Q01DX009 (ip), vehicle: saline with Tween-80): 104 % of control | T/C (dose: 40.0 mg/kg/injection, schedule: Q01DX009 (ip), vehicle: saline with Tween-80): 110 % of control | T/C (dose: 60.0 mg/kg/injection, schedule: Q01DX009 (ip), vehicle: saline with Tween-80): 109 % of control | T/C (dose: 75.0 mg/kg/injection, schedule: Q01DX001 (sc), vehicle: steriod suspending solution): 103 % of control | T/C (dose: 75.0 mg/kg/injection, schedule: Q01DX009 (sc), vehicle: steriod suspending solution): 166 % of control | T/C (dose: 150.0 mg/kg/injection, schedule: Q01DX009 (sc), vehicle: steriod suspending solution): 160 % of control

CNS(=O)(=O)c1ccccc1C(=N)c1ccccc1
T/C [1]: 97 % of control | T/C [2]: 97 % of control | T/C [3]: 100 % of control

Cc1ccc(S(=O)(=O)OCCN(CCO)c2cn(C(c3ccccc3)(c3ccccc3)c3ccccc3)c(=O)n(C(c3ccccc3)(c3ccccc3)c3ccccc3)c2=O)cc1
T/C (dose: 50.0 mg/kg/injection, schedule: Q01DX001 (ip), vehicle: saline): 93 % of control | T/C [1]: 93 % of control | T/C [2]: 93 % of control

S=c1nccc[nH]1
T/C (dose: 25.0 mg/kg/injection, schedule: Q01DX009 (ip), vehicle: saline with Tween-80): 103 % of control | T/C (dose: 25.0 mg/kg/injection, schedule: Q04DX002 (ip), vehicle: saline with Tween-80): 93 % of control | T/C (dose: 50.0 mg/kg/injection, schedule: Q01DX009 (ip), vehicle: saline with Tween-80): 105 % of control | T/C (dose: 50.0 mg/kg/injection, schedule: Q04DX002 (ip), vehicle: saline with Tween-80): 107 % of control | T/C (dose: 100.0 mg/kg/injection, schedule: Q04DX002 (ip), vehicle: saline with Tween-80): 96 % of control

NC(=O)Nc1ccccc1
T/C (dose: 100.0 mg/kg/injection, schedule: Q01DX009 (ip), vehicle: Klucel (hydroxypropylcellulose) (HPC)): 103 % of control | T/C (dose: 100.0 mg/kg/injection, schedule: Q04DX002 (ip), vehicle: Klucel (hydroxypropylcellulose) (HPC)): 109 % of control | T/C (dose: 200.0 mg/kg/injection, schedule: Q01DX009 (ip), vehicle: Klucel (hydroxypropylcellulose) (HPC)): 106 % of control | T/C (dose: 200.0 mg/kg/injection, schedule: Q04DX002 (ip), vehicle: Klucel (hydroxypropylcellulose) (HPC)): 109 % of control | T/C (dose: 400.0 mg/kg/injection, schedule: Q01DX009 (ip), vehicle: Klucel (hydroxypropylcellulose) (HPC)): 103 % of control | T/C (dose: 400.0 mg/kg/injection, schedule: Q04DX002 (ip), vehicle: Klucel (hydroxypropylcellulose) (HPC)): 88 % of control

CCN(C(C)=O)c1ccc(S(=O)(=O)Cl)cc1
T/C [4]: 97 % of control | T/C [5]: 88 % of control

CC1(C)CCCC(OC(=O)c2ccc([N+](=O)[O-])cc2)C1 (stereo not drawn)
T/C [6]: 93 % of control | T/C [7]: 96 % of control | T/C [8]: 102 % of control

CC(O)C(=O)N(O)c1ccccc1OCc1ccccc1 (stereo not drawn)
T/C (dose: 75.0 mg/kg/injection, schedule: Q01DX001 (ip), vehicle: acetone): 104 % of control | T/C (dose: 75.0 mg/kg/injection, schedule: Q04DX003 (ip), vehicle: acetone): 102 % of control | T/C (dose: 150.0 mg/kg/injection, schedule: Q01DX001 (ip), vehicle: acetone): 91 % of control | T/C (dose: 150.0 mg/kg/injection, schedule: Q04DX003 (ip), vehicle: acetone): 98 % of control | T/C (dose: 300.0 mg/kg/injection, schedule: Q01DX001 (ip), vehicle: acetone): 89 % of control | T/C (dose: 300.0 mg/kg/injection, schedule: Q04DX003 (ip), vehicle: acetone): 96 % of control

c1cc[c]([Sn]([c]2ccccc2)([c]2ccccc2)[n]2ccnc2)cc1
T/C (dose: 5.0 mg/kg/injection, schedule: Q01DX001 (ip), vehicle: other): 95 % of control | T/C (dose: 10.0 mg/kg/injection, schedule: Q01DX001 (ip), vehicle: other): 108 % of control

N#Cc1cnc2nc(N)nc(N)c2c1
T/C (dose: 50.0 mg/kg/injection, schedule: Q01DX009 (ip), vehicle: saline): 95 % of control and 105 % of control | T/C [9]: 95 % of control and 91 % of control | T/C [10]: 95 % of control | T/C [11]: 95 % of control and 98 % of control and 90 % of control | T/C [12]: 106 % of control

C=CC(=O)NC(C)=O
T/C (dose: 12.5 mg/kg/injection, schedule: Q04DX002 (ip), vehicle: Klucel (hydroxypropylcellulose) (HPC)): 103 % of control | T/C (dose: 25.0 mg/kg/injection, schedule: Q04DX002 (ip), vehicle: Klucel (hydroxypropylcellulose) (HPC)): 92 % of control | T/C (dose: 50.0 mg/kg/injection, schedule: Q04DX002 (ip), vehicle: Klucel (hydroxypropylcellulose) (HPC)): 95 % of control

CC(=O)OC12CCC(O1)C1C(=O)OC(=O)C12 (stereo not drawn)
T/C [13]: 101 % of control | T/C [14]: 97 % of control | T/C [15]: 97 % of control

CCCCCCCCSCC(=O)O
T/C [4]: 103 % of control | T/C [5]: 97 % of control

CS(=O)(=O)OCCN1C(=O)NC(c2ccccc2)(c2ccccc2)C1=O
T/C [1]: 94 % of control | T/C [9]: 97 % of control | T/C [10]: 107 % of control | T/C [2]: 94 % of control | T/C [11]: 96 % of control | T/C [12]: 93 % of control | T/C [3]: 100 % of control | T/C [16]: 97 % of control | T/C (dose: 400.0 mg/kg/injection, schedule: Q04DX003 (ip), vehicle: saline): 101 % of control

O=C(C(Cl)Cl)C(Cl)Cl
T/C (dose: 10.0 mg/kg/injection, schedule: Q01DX001 (ip), vehicle: carboxymethylcellulose (CMC)): 106 % of control

CCCCCCCCCCCCCCCC(=O)Oc1ccc(C(=S)N2CCOCC2)cc1
T/C [13]: 103 % of control | T/C [14]: 99 % of control | T/C [15]: 99 % of control

O=C(O)CN1C(=O)NC(C2CC2)(C2CC2)C1=O
T/C (dose: 100.0 mg/kg/injection, schedule: Q04DX003 (ip), vehicle: acetone): 100 % of control | T/C (dose: 200.0 mg/kg/injection, schedule: Q04DX003 (ip), vehicle: acetone): 96 % of control | T/C (dose: 400.0 mg/kg/injection, schedule: Q04DX003 (ip), vehicle: acetone): 100 % of control

Cc1ccc(S(=O)(=O)OC2C(SCc3ccccc3)OCC(OC(=O)c3ccccc3)C2OC(=O)c2ccccc2)cc1 (stereo not drawn)
T/C [1]: 93 % of control | T/C [2]: 88 % of control | T/C [3]: 88 % of control

CC(C)(C)NS(=O)(=O)c1ccc(Cl)c([N+](=O)[O-])c1
T/C [13]: 95 % of control | T/C [14]: 93 % of control | T/C [15]: 90 % of control

O=NN1CCCCCCC1C(=O)O (stereo not drawn)
T/C [1]: 102 % of control | T/C [2]: 98 % of control | T/C [3]: 102 % of control

COc1cc(N)ccc1C(=O)NC(CCC(=O)O)C(=O)O (stereo not drawn)
T/C (dose: 100.0 mg/kg/injection, schedule: Q01DX001 (ip), vehicle: Klucel (hydroxypropylcellulose) (HPC)): 103 % of control | T/C (dose: 200.0 mg/kg/injection, schedule: Q01DX001 (ip), vehicle: Klucel (hydroxypropylcellulose) (HPC)): 100 % of control | T/C (dose: 400.0 mg/kg/injection, schedule: Q01DX001 (ip), vehicle: Klucel (hydroxypropylcellulose) (HPC)): 103 % of control

COc1cc(N(CCCl)CCCl)c(OC)cc1C=Nc1cccc(C(F)(F)F)c1
T/C [6]: 120 % of control | T/C [7]: 115 % of control | T/C [8]: 98 % of control

C=CCc1cc(CNCCCOCC)c(O)c(OC)c1
T/C (dose: 12.5 mg/kg/injection, schedule: Q04DX003 (ip), vehicle: Klucel (hydroxypropylcellulose) (HPC)): 97 % of control | T/C (dose: 25.0 mg/kg/injection, schedule: Q04DX003 (ip), vehicle: Klucel (hydroxypropylcellulose) (HPC)): 95 % of control | T/C (dose: 50.0 mg/kg/injection, schedule: Q04DX003 (ip), vehicle: Klucel (hydroxypropylcellulose) (HPC)): 92 % of control

COc1cc2c(cc1OC)C(=O)C(Br)N(S(=O)(=O)c1ccc(C)cc1)CC2 (stereo not drawn)
T/C [9]: 96 % of control | T/C [11]: 97 % of control | T/C [16]: 93 % of control
